Data published in patent US20240067693A1, “POLYPEPTIDES AND USES THEREOF” (MEDIMMUNE LIMITED, priority 2020, published 2024).
Numbered stars: 1 amine (or outer) side, 2 acyl side, 3 side chain; on linkers, the order of the positions; unused ones are H or OH. Bridge positions count the residues as written; N and C are the ends. Square brackets hold non-standard residues; d marks the D form. Side chains are listed from the residue outwards. Peptide text beside a SMILES is read from it. * marks the point of attachment. C18 diacid = O=C(O)CCCCCCCCCCCCCCCCC(=O)*; γGlu = O=C(O)[C@H](CCC(=O)[*:2])N[*:1]; Aib = CC(C)(N)C(=O)O

Legend:
[1] = molecular target: T1, human calcitonin receptor (hCTR) (Homo sapiens, UniProt P30988); assay: cAMP production in 1321N1 cells with stable recombinant expression of human calcitonin receptor (hCTR); type: cell-based; settings: cAMP, 1321N1 cells, assay buffer with 0.1% BSA; read-out: EC50 (pM) hCTR
T1 construct: expressed in transfected cells
T1 sequence (P30988 25-474): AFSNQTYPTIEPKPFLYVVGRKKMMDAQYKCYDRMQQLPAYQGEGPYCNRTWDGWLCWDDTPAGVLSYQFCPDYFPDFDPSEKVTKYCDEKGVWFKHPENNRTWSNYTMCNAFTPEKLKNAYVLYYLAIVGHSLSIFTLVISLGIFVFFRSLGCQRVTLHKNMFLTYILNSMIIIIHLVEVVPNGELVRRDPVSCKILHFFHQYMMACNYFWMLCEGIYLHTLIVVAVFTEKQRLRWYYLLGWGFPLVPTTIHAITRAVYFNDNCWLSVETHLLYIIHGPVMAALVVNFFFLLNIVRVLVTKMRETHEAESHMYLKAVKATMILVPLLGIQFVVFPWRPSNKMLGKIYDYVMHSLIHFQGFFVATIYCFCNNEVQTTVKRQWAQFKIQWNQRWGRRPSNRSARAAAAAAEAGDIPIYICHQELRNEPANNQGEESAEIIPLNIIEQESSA
Outline: (§1)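 EC50 values come from 4-parameter logistic fits of HTRF cAMP signal, normalised to maximal calcitonin or amylin effect. Peptides were tested in duplicate for 30 min at RT in IBMX-containing (0.5 mM) BSA/HEPES buffer pH 7.4 on stable 1321N1 (human CTR, AMYR3) or HEK (rat CTR, AMYR3) lines.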

[2] = molecular target: T2, rat amylin receptor (calcitonin receptor co-expressed with receptor activity modifying protein, RAMP3) (Rat AMYR3) (Rattus norvegicus, UniProt P32214+Q9JJ73); assay: cAMP production in HEK cells with stable recombinant expression of rat amylin receptor (Rat AMYR3); type: cell-based; settings: assay buffer with 0.1% BSA
T2 construct: expressed in transfected cells
T2 sequence (P32214 25-516): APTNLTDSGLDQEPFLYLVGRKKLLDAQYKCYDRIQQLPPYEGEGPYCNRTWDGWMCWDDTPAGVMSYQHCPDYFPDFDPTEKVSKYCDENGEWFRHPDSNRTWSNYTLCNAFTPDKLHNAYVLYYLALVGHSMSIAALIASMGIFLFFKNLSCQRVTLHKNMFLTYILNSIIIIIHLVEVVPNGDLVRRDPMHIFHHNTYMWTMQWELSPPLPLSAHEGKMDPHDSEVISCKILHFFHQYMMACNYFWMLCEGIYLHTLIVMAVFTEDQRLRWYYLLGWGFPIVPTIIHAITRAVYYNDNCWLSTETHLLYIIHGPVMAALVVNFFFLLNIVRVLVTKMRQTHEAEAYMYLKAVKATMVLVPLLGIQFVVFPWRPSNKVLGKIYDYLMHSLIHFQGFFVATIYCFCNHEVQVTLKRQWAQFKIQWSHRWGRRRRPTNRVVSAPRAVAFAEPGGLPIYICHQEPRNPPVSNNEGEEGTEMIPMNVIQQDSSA
T2 sequence (Q9JJ73 23-147 partner): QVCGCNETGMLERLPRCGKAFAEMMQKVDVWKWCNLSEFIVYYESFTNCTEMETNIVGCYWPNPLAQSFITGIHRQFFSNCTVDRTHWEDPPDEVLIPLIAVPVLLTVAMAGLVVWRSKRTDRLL
Outline: as §1

[3] = Thioflavin T fibrillation assay; type: physicochemical; settings: for Time taken to detect increase in fluorescence intensity: ThT fibrillation assay, peptide 1 mg/mL in 25 mM sodium acetate buffer pH 4.0, 6 days at 37 °C with shaking, >144 h = no increase
Outline: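 Peptides at 1 mg/mL in 25 mM sodium acetate pH 4.0 with ThT (from 0.25 mM stock), incubated 6 days at 37 °C with intermittent orbital shaking at 500–750 rpm. Fluorescence (ex 444/em 480 nm) read every 30 min; value is average time to a rise in baseline-corrected signal.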

Row | EC50 [1] | EC50 [2] | Time taken to detect increase in fluorescence intensity [3] | fibril-forming tendency ([3]; ThT assay, 1 mg/mL, pH 4.0, 37 °C, compared to pramlintide) | SMILES
1 | 13500 pM | 17.8 pM | 7 h |  | CC[C@H](C)[C@H](NC(=O)[C@H](C)NC(=O)[C@@H]1CCCN1C(=O)[C@H](Cc1ccccc1)NC(=O)[C@H](CC(N)=O)NC(=O)C(C)(C)NC(=O)[C@H](CO)NC(=O)[C@H](CO)NC(=O)[C@H](Cc1c[nH]cn1)NC(=O)[C@@H](NC(=O)[C@H](CC(C)C)NC(=O)[C@H](Cc1ccccc1)NC(=O)[C@H](CC(N)=O)NC(=O)[C@H](C)NC(=O)[C@H](CC(C)C)NC(=O)[C@H](CCCNC(=N)N)NC(=O)[C@H](CCC(N)=O)NC(=O)[C@@H](NC(=O)[C@H](C)NC(=O)[C@@H]1CSSC[C@H](NC(=O)[C@@H](N)CCCCNC(=O)CC[C@H](NC(=O)CC[C@H](NC(=O)CCCCCCCCCCCCCCCCC(=O)O)C(=O)O)C(=O)O)C(=O)N[C@@H](CC(N)=O)C(=O)N[C@@H]([C@@H](C)O)C(=O)N[C@@H](C)C(=O)N[C@@H]([C@@H](C)O)C(=O)N1)[C@@H](C)O)C(C)C)C(=O)N[C@@H](CC(C)C)C(=O)N[C@@H](CO)C(=O)N1CCC[C@H]1C(=O)N[C@H](C(=O)N[C@@H](CC(N)=O)C(=O)N[C@H](C(=O)NCC(=O)N[C@@H](CO)C(=O)N[C@@H](CC(N)=O)C(=O)N[C@H](C(=O)N[C@@H](Cc1ccc(O)cc1)C(N)=O)[C@@H](C)O)C(C)C)[C@@H](C)O [Peptide 9, K(γE-γE-C18diacid)[CNTATC]ATQRLANFLVHSS(Aib)NFPAILSPTNVGSNTY-amide] (H-K([γGlu-γGlu-C18 diacid])CNTATCATQRLANFLVHSS[Aib]NFPAILSPTNVGSNTY-NH2; disulfide 2-7)
2 | 1350 pM | 2.9 pM | <5 h | increases the fibril-forming tendency | CC[C@H](C)[C@H](NC(=O)[C@@H]1CCCN1C(=O)CNC(=O)[C@H](Cc1ccccc1)NC(=O)[C@H](CC(N)=O)NC(=O)[C@H](CC(N)=O)NC(=O)[C@H](CO)NC(=O)[C@H](CO)NC(=O)[C@H](Cc1c[nH]cn1)NC(=O)[C@@H](NC(=O)[C@H](CC(C)C)NC(=O)[C@H](Cc1ccccc1)NC(=O)[C@H](CC(N)=O)NC(=O)[C@H](C)NC(=O)[C@H](CC(C)C)NC(=O)[C@H](CCCNC(=N)N)NC(=O)[C@H](CCC(N)=O)NC(=O)[C@@H](NC(=O)[C@H](C)NC(=O)[C@@H]1CSSC[C@H](NC(=O)[C@H](CCCCN)NC(=O)CC[C@H](NC(=O)CCCCCCCCCCCCCCCCC(=O)O)C(=O)O)C(=O)N[C@@H](CC(N)=O)C(=O)N[C@@H]([C@@H](C)O)C(=O)N[C@@H](C)C(=O)N[C@@H]([C@@H](C)O)C(=O)N1)[C@@H](C)O)C(C)C)C(=O)N[C@@H](CC(C)C)C(=O)N1CCC[C@H]1C(=O)N1CCC[C@H]1C(=O)N[C@H](C(=O)N[C@@H](CC(N)=O)C(=O)N[C@H](C(=O)NCC(=O)N[C@@H](CO)C(=O)N[C@@H](CC(N)=O)C(=O)N[C@H](C(=O)N[C@@H](Cc1ccc(O)cc1)C(N)=O)[C@@H](C)O)C(C)C)[C@@H](C)O [Peptide 3] ({C18 diacid-γGlu}-KCNTATCATQRLANFLVHSSNNFGPILPPTNVGSNTY-NH2; disulfide 2-7)
3 | 5270 pM | 4.8 pM | >144 h |  | CC[C@H](C)[C@H](NC(=O)[C@@H]1CCCN1C(=O)CNC(=O)[C@H](Cc1ccccc1)NC(=O)[C@H](CC(N)=O)NC(=O)C(C)(C)NC(=O)[C@H](CO)NC(=O)[C@H](CO)NC(=O)[C@H](Cc1c[nH]cn1)NC(=O)[C@H](CCCNC(=N)N)NC(=O)[C@H](CC(C)C)NC(=O)[C@H](Cc1ccccc1)NC(=O)[C@H](CC(N)=O)NC(=O)[C@H](C)NC(=O)[C@H](CC(C)C)NC(=O)[C@H](CCCNC(=N)N)NC(=O)[C@H](CCC(N)=O)NC(=O)[C@@H](NC(=O)[C@H](C)NC(=O)[C@@H]1CSSC[C@H](NC(=O)[C@@H](N)CCCCNC(=O)CC[C@H](NC(=O)CCCCCCCCCCCCCCCCC(=O)O)C(=O)O)C(=O)N[C@@H](CC(N)=O)C(=O)N[C@@H]([C@@H](C)O)C(=O)N[C@@H](C)C(=O)N[C@@H]([C@@H](C)O)C(=O)N1)[C@@H](C)O)C(=O)N[C@@H](CC(C)C)C(=O)N1CCC[C@H]1C(=O)N1CCC[C@H]1C(=O)N[C@H](C(=O)N[C@@H](CC(N)=O)C(=O)N[C@H](C(=O)NCC(=O)N[C@@H](CO)C(=O)N[C@@H](CC(N)=O)C(=O)N[C@H](C(=O)N[C@@H](Cc1ccc(O)cc1)C(N)=O)[C@@H](C)O)C(C)C)[C@@H](C)O [Peptide 48, K(γE-C18diacid)[CNTATC]ATQRLANFLRHSS(Aib)NFGPILPPTNVGSNTY-amide] (H-K([γGlu-C18 diacid])CNTATCATQRLANFLRHSS[Aib]NFGPILPPTNVGSNTY-NH2; disulfide 2-7; N-terminus assumed)
4 | 6260 pM | 18.5 pM | >144 h |  | CC[C@H](C)[C@H](NC(=O)[C@@H]1CCCN1C(=O)CNC(=O)[C@H](Cc1ccccc1)NC(=O)[C@H](CC(N)=O)NC(=O)C(C)(C)NC(=O)[C@H](CO)NC(=O)[C@H](CO)NC(=O)[C@H](Cc1c[nH]cn1)NC(=O)[C@H](CCCNC(=N)N)NC(=O)[C@H](CC(C)C)NC(=O)[C@H](Cc1ccccc1)NC(=O)[C@H](CC(N)=O)NC(=O)[C@H](C)NC(=O)[C@H](CC(C)C)NC(=O)[C@H](CCCNC(=N)N)NC(=O)[C@H](CCC(N)=O)NC(=O)[C@@H](NC(=O)[C@H](C)NC(=O)[C@@H]1CSSC[C@H](NC(=O)[C@@H](N)CCCCNC(=O)CC[C@H](NC(=O)CCCCCCCCCCCCCCCCC(=O)O)C(=O)O)C(=O)N[C@@H](CC(N)=O)C(=O)N[C@@H]([C@@H](C)O)C(=O)N[C@@H](C)C(=O)N[C@@H]([C@@H](C)O)C(=O)N1)[C@@H](C)O)C(=O)N[C@@H](CC(C)C)C(=O)N1CCC[C@H]1C(=O)N1CCC[C@H]1C(=O)N[C@H](C(=O)N[C@@H](CCC(=O)O)C(=O)N[C@H](C(=O)NCC(=O)N[C@@H](CO)C(=O)N[C@@H](CC(N)=O)C(=O)N[C@H](C(=O)N[C@@H](Cc1ccc(O)cc1)C(N)=O)[C@@H](C)O)C(C)C)[C@@H](C)O [Peptide 44, K(γE-C18diacid)[CNTATC]ATQRLANFLRHSS(Aib)NFGPILPPTEVGSNTY-amide] (H-K([γGlu-C18 diacid])CNTATCATQRLANFLRHSS[Aib]NFGPILPPTEVGSNTY-NH2; disulfide 2-7; N-terminus assumed)
